Source: the supplement of paper PMC4862054

What was measured:
Settings in all cases: incubation time: 72 h
[1] = tested on: MDA-MB-453; assay: normalised response (% of control), CellTox Green; higher = less cell death (100 = DMSO, 0 = benzethonium chloride kill control)
Summary of the method: (§1)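 Breast cancer cell lines in 20 µl suspension were added to 384-well plates containing compound at 5 concentrations, spaced in 10-fold steps across a 10,000-fold range chosen for each compound, and incubated for 72 h. CellTox Green fluorescence was read at 485/520 nm, followed by CellTiter-Glo luminescence after 10 min at room temperature. Signals on each plate were normalised so that 0.1 % DMSO equals 100 and a positive kill control equals 0. Every value in the table is the normalised signal at one concentration of the series.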

[2] = tested on: MDA-MB-468; assay: as above
Summary of the method: as §1

[3] = tested on: MDA-MB-436; assay: as above
Summary of the method: as §1

[4] = tested on: HDQ-P1; assay: as above
Summary of the method: as §1

[5] = tested on: HCC1599; assay: as above
Summary of the method: as §1

[6] = tested on: BT-474; assay: as above
Summary of the method: as §1

[7] = tested on: CAL-51; assay: as above
Summary of the method: as §1

[8] = tested on: CAL-120; assay: as above
Summary of the method: as §1

[9] = tested on: Hs578T; assay: as above
Summary of the method: as §1

[10] = tested on: MDA-MB-231; assay: as above
Summary of the method: as §1

[11] = tested on: HCC1143; assay: as above
Summary of the method: as §1

[12] = tested on: MFM-223; assay: as above
Summary of the method: as §1

[13] = tested on: DU-4475; assay: as above
Summary of the method: as §1

[14] = tested on: BT-549; assay: as above
Summary of the method: as §1

[15] = tested on: CAL-85-1; assay: as above
Summary of the method: as §1

[16] = tested on: MCF-10A; assay: as above
Summary of the method: as §1

[17] = tested on: CAL-148; assay: as above
Summary of the method: as §1

[18] = tested on: MDA-MB-453; assay: normalised response (% of control), CellTiter-Glo; higher = more viable cells (100 = DMSO, 0 = benzethonium chloride kill control)
Experimental: (§2)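 DSRT, 72 h incubation, CellTox Green / CellTiter-Glo readout. Signal is normalised to DMSO and benzethonium chloride controls. Value is the normalised response at dose 3.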

[19] = tested on: MDA-MB-468; assay: as above
Experimental: as §2

[20] = tested on: MDA-MB-436; assay: as above
Experimental: as §2

[21] = tested on: HDQ-P1; assay: as above
Experimental: as §2

[22] = tested on: HCC1599; assay: as above
Experimental: as §2

[23] = tested on: BT-474; assay: as above
Experimental: as §2

[24] = tested on: CAL-51; assay: as above
Experimental: as §2

[25] = tested on: CAL-120; assay: as above
Experimental: as §2

[26] = tested on: Hs578T; assay: as above
Experimental: as §2

[27] = tested on: MDA-MB-231; assay: as above
Experimental: as §2

[28] = tested on: HCC1937; assay: as above
Experimental: as §2

[29] = tested on: HCC1143; assay: as above
Experimental: as §2

[30] = tested on: MFM-223; assay: as above
Experimental: as §2

[31] = tested on: DU-4475; assay: as above
Experimental: as §2

[32] = tested on: BT-549; assay: as above
Experimental: as §2

[33] = tested on: CAL-85-1; assay: as above
Experimental: as §2

[34] = tested on: SK-BR-3; assay: as above
Experimental: as §2

[35] = tested on: MCF-10A; assay: as above
Experimental: as §2

[36] = tested on: CAL-148; assay: as above
Experimental: as §2

[37] = tested on: HCC1937; assay: normalised response (% of control), CellTox Green; higher = less cell death (100 = DMSO, 0 = benzethonium chloride kill control)
Summary of the method: as §1

SMILES	normalised response [1]	normalised response [2]	normalised response [3]	normalised response [4]	normalised response [5]	normalised response [6]	normalised response [7]	normalised response [8]	normalised response [9]	normalised response [10]	normalised response [11]	normalised response [12]	normalised response [13]	normalised response [14]	normalised response [15]	normalised response [16]	normalised response [17]	normalised response [18]	normalised response [19]	normalised response [20]	normalised response [21]	normalised response [22]	normalised response [23]	normalised response [24]	normalised response [25]	normalised response [26]	normalised response [27]	normalised response [28]	normalised response [29]	normalised response [30]	normalised response [31]	normalised response [32]	normalised response [33]	normalised response [34]	normalised response [35]	normalised response [36]	normalised response [37]
CO[C@@H]1[C@H](N(C)C(=O)c2ccccc2)C[C@H]2O[C@]1(C)n1c3ccccc3c3c4c(c5c6ccccc6n2c5c31)C(=O)NC4 [Midostaurin] (100 nM)	102%	137%	93.9%	103%	94.5%	96.4%	74.1%	74.9%	67%	91.2%	88.6%	103%	94.6%	88.8%	95.8%	108%	97.8%	94.3%	92.4%	102%	95.9%	99.6%	85.3%	89.7%	88.5%	83.3%	85.8%	85.5%	95.3%	98.8%	96.9%	93.4%	99%	98.4%	68.7%	114%	–
CC(=O)[C@]1(O)Cc2c(O)c3c(c(O)c2[C@@H](O[C@H]2C[C@H](N)[C@H](O)[C@H](C)O2)C1)C(=O)c1ccccc1C3=O [Idarubicin] (10 nM)	104%	118%	96%	105%	113%	99.2%	79.8%	97.7%	114%	106%	114%	97.6%	100%	83.3%	97.7%	–	93%	110%	92.9%	95.9%	101%	118%	98.7%	73.7%	106%	94.5%	109%	99.2%	109%	107%	96%	89.7%	105%	105%	100%	102%	55.8%
CCNC(=O)c1noc(-c2cc(C(C)C)c(O)cc2O)c1-c1ccc(CN2CCOCC2)cc1 [NVP-AUY922] (10 nM)	101%	107%	70.9%	104%	112%	95.4%	118%	93%	105%	–	119%	106%	98.7%	81.9%	73.1%	65%	107%	101%	32.4%	56.4%	77.1%	111%	116%	99.3%	103%	104%	110%	95.7%	107%	70.4%	101%	73.2%	107%	55.8%	95%	114%	–
Nc1ccn([C@@H]2O[C@H](CO)[C@@H](O)C2(F)F)c(=O)n1 [Gemcitabine] (10 nM)	105%	48.3%	97.1%	–	100%	97.1%	84.7%	99.7%	102%	97.9%	102%	95.2%	101%	92.5%	85%	103%	36.9%	139%	52.2%	64.2%	102%	89.5%	89.3%	82%	94.9%	99.3%	85.3%	90.8%	68.3%	100%	96.8%	61.3%	85.6%	79.6%	102%	77.9%	111%
O=[N+]([O-])c1ccc2c(c1)S(=O)(=O)C=C2 [Stattic] (500 nM)	103%	133%	95.3%	104%	95.4%	101%	108%	99.8%	89.2%	107%	81.2%	96.9%	107%	102%	98.8%	106%	102%	85.2%	45.6%	100%	100%	103%	94.5%	99%	98.2%	96.5%	90.8%	94.3%	104%	96.8%	102%	85.3%	99.5%	106%	106%	98.3%	–
C=CCn1c(=O)c2cnc(Nc3ccc(N4CCN(C)CC4)cc3)nc2n1-c1cccc(C(C)(C)O)n1 [MK1775] (100 nM)	96.5%	76.1%	63.2%	98.5%	90%	95.4%	82.8%	97.8%	66.1%	70.8%	98.6%	97.1%	94.9%	105%	77.2%	84.2%	73.4%	67.6%	89.2%	69.4%	74.6%	81.2%	87.1%	94.7%	79%	87.7%	81.5%	90.7%	89.2%	82.4%	93.4%	91.1%	90.3%	79%	73.3%	73.4%	–
CCN(CC)CCCC(C)Nc1ccnc2cc(Cl)ccc12 (configuration not stated) [Chloroquine] (1000 nM)	96.3%	–	85%	88.4%	97.9%	79.8%	85.5%	103%	99.3%	98%	109%	87.7%	99.9%	105%	110%	86.3%	104%	81.3%	83.1%	108%	103%	97%	101%	78.1%	110%	96%	98.1%	90.6%	97.4%	93.4%	93%	103%	102%	82.9%	94.4%	86.9%	102%
Cn1cc(C2=C(c3cn(C4CCN(Cc5ccccn5)CC4)c4ccccc34)C(=O)NC2=O)c2ccccc21 [Enzastaurin] (100 nM)	102%	56.9%	86%	114%	115%	101%	104%	104%	111%	102%	–	107%	104%	95.4%	99.2%	104%	95%	105%	96.9%	102%	94%	90.6%	103%	65%	99.1%	98.2%	103%	101%	103%	106%	99.4%	98.3%	107%	104%	101%	106%	102%
CC1(COc2ccc3c(c2)ncn3-c2ccc3cccc(N4CCC(N)CC4)c3n2)COC1 [Crenolanib] (100 nM)	108%	99.6%	–	105%	99.3%	103%	90.2%	97.2%	107%	120%	–	94.3%	103%	89.1%	104%	95.4%	82.2%	112%	107%	103%	105%	110%	108%	77.8%	97.9%	103%	113%	102%	109%	104%	104%	103%	112%	114%	110%	107%	80.2%
